Test results published in patent EP3875456A1, “HETERO-BIFUNCTIONAL PROTEOLYSIS-TARGETING CHIMERAS (PROTACS) FOR THE SELECTIVE DEGRADATION OF FK506-BINDING PROTEINS (FKBPS)” (Technische Universität Darmstadt, priority 2020, dated 2021).

How the values were obtained:
FKBP51FK1 = molecular target: T1, FKBP51FK1 (Homo sapiens, UniProt Q13451); test: Binding affinities of exemplary compounds to FKBP51
T1 construct: FKBP51FK1
T1 sequence (Q13451 42-130 limits assumed): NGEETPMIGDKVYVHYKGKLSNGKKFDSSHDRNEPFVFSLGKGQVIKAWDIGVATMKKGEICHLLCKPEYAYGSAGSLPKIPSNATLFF
Description: Binding to FKBP51 is an important prerequisite in order to allow degradation of FKBP51. Thus, the binding affinities of the newly synthesized molecules (table 1) were tested.

FKBP51 [1] = molecular target: T2, FKBP51 (Homo sapiens, UniProt Q13451); test: Degradation of FKBP51 in HEK293T cells (Western blot); assay type: cell-based; set-up: Upper blot: Endogeneous FKBP51; endogenous in cells; details: 48 h incubation, endogeneous FKBP51, Western Blot, GAPDH control
T2 sequence (Q13451 1-457): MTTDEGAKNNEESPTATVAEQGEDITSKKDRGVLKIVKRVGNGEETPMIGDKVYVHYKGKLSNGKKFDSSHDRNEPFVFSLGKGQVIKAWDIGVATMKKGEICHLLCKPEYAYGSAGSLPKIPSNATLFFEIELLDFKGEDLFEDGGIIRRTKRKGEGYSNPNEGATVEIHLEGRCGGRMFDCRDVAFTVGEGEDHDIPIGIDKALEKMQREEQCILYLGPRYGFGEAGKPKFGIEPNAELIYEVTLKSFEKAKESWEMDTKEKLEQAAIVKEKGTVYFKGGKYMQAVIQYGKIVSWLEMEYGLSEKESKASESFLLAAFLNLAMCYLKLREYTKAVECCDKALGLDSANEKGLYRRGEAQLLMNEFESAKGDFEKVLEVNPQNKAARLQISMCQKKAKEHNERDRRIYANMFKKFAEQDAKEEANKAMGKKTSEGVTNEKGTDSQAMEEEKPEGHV
Description: (§1) HEK293T cells were incubated with the PROTAC MTQ202. 35,000 cells per well in a 24 well format. Figure 3-Upper blot: Endogeneous FKBP51. Figure 3-Lower blot: GAPDH. Cells were treated with the compound for 48 h before lysis. All samples have been exposed to a constant DMSO concentration. Lysate protein concentration was quantified via BCA assay and normalized with Lämmli buffer. Equal amounts of total protein were subjected to SDS-Page and Western Blot afterwards.

FKBP51 [2] = molecular target: T2, FKBP51; test: Degradation of FKBP51 in HeLa cells (Western blot); assay type: cell-based; set-up: Upper blot: Endogeneous FKBP51; endogenous in cells; host or cells: HeLa; details: 24 h incubation, endogeneous FKBP51, Western Blot, GAPDH control
Description: as §1, with “HeLa” for “HEK293T”, “2 - Upper” for “3-Upper”, “2 - Lower” for “3-Lower”, “24” for “48”

SMILES | Ki (FKBP51FK1) [nM] | Degradation of FKBP51 (FKBP51 [1]) | Degradation of FKBP51 (FKBP51 [2])
COc1ccc(CC[C@H](OC(=O)[C@H]2CCCCN2C(=O)[C@H](c2cc(OC)c(OC)c(OC)c2)C2CCCCC2)c2cccc(OCc3cn(CCOCCOCCOCCOCCOCC(=O)N[C@H](C(=O)N4C[C@H](O)C[C@H]4C(=O)NCc4ccc(-c5scnc5C)cc4)C(C)(C)C)nn3)c2)cc1OC [MTQ203, (S)-(R)-3-(3,4-Dimethoxyphenyl)-1-(3-((1-((S)-19-((2S,4R)-4-hydroxy-2-((4-(4-methylthiazol-5-yl)benzyl)carbamoyl)pyrrolidine-1-carbonyl)-20,20-dimethyl-17-oxo-3,6,9,12,15-pentaoxa-18-azahenicosyl)-1H-1,2,3-triazol-4-yl)methoxy)phenyl)propyl 1-((S)-2-cyclohexyl-2-(3,4,5-trimethoxyphenyl)acetyl)piperidine-2-carboxylate] | 12 ± 3 |  | 
C#CCOc1cccc([C@H](CCc2ccc(OC)c(OC)c2)OC(=O)[C@H]2CCCCN2C(=O)[C@H](c2cc(OC)c(OC)c(OC)c2)C2CCCCC2)c1 (stereo in doubt) [Molecule (9), (S)-(R)-3-(3,4-Dimethoxyphenyl)-1-(3-(prop-2-yn-1-yloxy)phenyl)propyl 1-((S)-2-cyclohexyl-2-(3,4,5-trimethoxyphenyl)acetyl)piperidine-2-carboxylate] | 32 ± 7 |  | 
COc1ccc(CC[C@@H](OC(=O)[C@@H]2CCCCN2C(=O)[C@H](c2cc(OC)c(OC)c(OC)c2)C2CCCCC2)c2cccc(OCc3cn(CCOCCOCCOCC(=O)Nc4cccc5c4C(=O)N(C4CCC(=O)NC4=O)C5=O)nn3)c2)cc1OC (stereo partly drawn) [MTQ206, (2S)-(1R)-3-(3,4-Dimethoxyphenyl)-1-(3-((1-(2-(2-(2-(2-((2-(2,6-dioxopiperidin-3-yl)-1,3-dioxoisoindolin-4-yl)amino)-2-oxoethoxy)ethoxy)ethoxy)ethyl)-1H-1,2,3-triazol-4-yl)methoxy)phenyl)propyl 1-((S)-2-cyclohexyl-2-(3,4,5-trimethoxyphenyl)acetyl)piperidine-2-carboxylate] | 22 ± 6 |  | 
COc1ccc(CC[C@H](OC(=O)[C@H]2CCCCN2C(=O)[C@H](c2cc(OC)c(OC)c(OC)c2)C2CCCCC2)c2cccc(OCc3cn(CCOCCOCCOCCOCC(=O)N[C@H](C(=O)N4C[C@H](O)C[C@H]4C(=O)NCc4ccc(-c5scnc5C)cc4)C(C)(C)C)nn3)c2)cc1OC (stereo in doubt) [MTQ202, (S)-(R)-3-(3,4-Dimethoxyphenyl)-1-(3-((1-((S)-16-((2S,4R)-4-hydroxy-2-((4-(4-methylthiazol-5-yl)benzyl)carbamoyl)pyrrolidine-1-carbonyl)-17,17-dimethyl-14-oxo-3,6,9,12-tetraoxa-15-azaoctadecyl)-1H-1,2,3-triazol-4-yl)methoxy)phenyl)propyl 1-((S)-2-cyclohexyl-2-(3,4,5-trimethoxyphenyl)acetyl)piperidine-2-carboxylate] | 24 ± 8 | clearly visible, but not complete | clearly visible, but not complete
COc1ccc(CC[C@@H](OC(=O)[C@@H]2CCCCN2C(=O)[C@H](c2cc(OC)c(OC)c(OC)c2)C2CCCCC2)c2cccc(OCc3cn(CCOCCOCC(=O)N[C@H](C(=O)N4C[C@H](O)C[C@H]4C(=O)NCc4ccc(-c5scnc5C)cc4)C(C)(C)C)nn3)c2)cc1OC [MTQ200] | 24 ± 7 |  | 
